From US9670217B2, “Process for preparing chlorins and their pharmaceutical uses” (UNIVERSIDADE DE COIMBRA, priority 2008, dated 2017)

Key:
[1] = minipig
[2] = system: CT26 mouse colon carcinoma; test: PDT of implanted CT26 tumors; type: in vivo, Balb/C mice; details: 10 mg/kg i.p. in PEG400, 24 h post-injection, 748 nm, 132 J/cm^2
From the text: The other mice were Balb/C weighing 20-25 g, from the animal breeding facility of Charles River Laboratories (Barcelona). The mice were kept on a standard laboratory diet with free access to drinking water. The use of such animals for experimental purposes was approved by the Board of Centro de Neurociências e Biologia Celular (Coimbra).
The tumors grew to reach 5 mm in diameter in about one week after the implantation. No spontaneous necrosis was observed. The treatment was initiated when the tumor attained 5 mm in diameter in each animal. The day the tumors reached the treatment size, the mice were injected via i.p. with a dose of 10 mg/kg of Luzitin-FMet in PEG400. At 24 h post-injection, four mice were anesthetized with ketamine and xylazine, and treated with the Hamamatsu 748 nm diode laser described before, at a fluence rate of 100 mW/cm^2 for 22 minutes (total fluence of 132 J/cm^2). Four other mice were not treated and served as control. The mice were checked daily, the tumors were measured using two orthogonal measurements L and W (perpendicular to L) and the volumes were calculated using the formula V=L×W^2/2 and recorded.

[3] = system: S91 Cloudman melanoma; test: PDT of implanted S91 tumors; type: in vivo, DBA/2 mice
From the text: The mice used in the present study were form two sources. Dark toxicity, biodistribution and farmacokinetic studies employed DBA/2 mice, weighing 20-30 g, from the animal breeding facility at the Faculty of Biochemistry, Biophysics and Biotechnology, Jagiellonian University, Krakow. The mice were kept on a standard laboratory diet with free access to drinking water. The use of such animals for experimental purposes was approved by the Jagiellonian University Committee for Ethics of Experiments on Animals (decision No. 384/99). Such mice were also employed in PDT.
The tumors grew to reach 5 mm in about one week after the implantation. No spontaneous necrosis was observed. The treatment was initiated when the tumor attained 5 mm in diameter in each animal. The day the tumors reached the treatment size, the mice were injected via i.p. with a dose of 10 mg/kg of Luzitin-C12Et in PEG400. At 24 h post-injection, the mice were anesthetized with ketamine and xylazine, and restrained in plastic holders, then treated with different light doses with the Hamamatsu 748 nm diode laser described before. […] The mice were checked daily, and the size of the tumors was measured and recorded.

[4] = system: MCF7 (human breast carcinoma); test: Cell photosensitization, filtered halogen lamp, MTT; type: cell-based
Experimental: (§1) Irradiation in in vitro experiments was performed using either a halogen lamp or a laser source. In the first case, a 500 W halogen lamp was placed 50 cm from the irradiated plate to insure a homogeneous irradiation. A cooled water filter (d=35 mm) and a 600 nm cut off filter were placed between the lamp and samples. The fluence rate reaching samples was 3 mW/cm^2. The emission spectrum of the halogen lamp was recorded using a spectroradiometer IL2000 (Spectrocube), FIG. 1. In the second case, three Lynx external cavity diode lasers TEC 500 powered by PilotPC 500 Laser Controllers (Sacher Lasertechnik, Marburg, Germany) were employed. The laser energies were stable at 40 mW for the 748 nm laser, 10 mW for the 649 laser and 10 mW for the 633 laser. The laser energies were regularly measured with a Coherent LaserCheck. In some in vitro experiments, the laser light was focused on an optical fiber through a collimator in microbench, and delivered to the cells. This system reduced the 748 nm laser light to 30 mW.
(§2) The cell lines employed in halogen lamp irradiation were the MCF7 (human breast carcinoma), SKMEL 188 (human melanoma) and S91/I3 (mouse melanoma) cells. They were used both for cytotoxicity and photocytotoxicity experiments. MCF7 cells were grown supplemented with 10% fetal calf (FBS) serum, 25 units/ml of penicillin, and 25 μg/ml of streptomycin. Human melanoma cells SKMEL-188 were grown in F10 medium supplemented with 10% fetal calf serum (FCS), 100 units/ml of penicillin, and 100 μg/ml of streptomycin. I3 subline of Cloudman S91 melanoma cells were cultured in RPMI 1640 medium supplemented with 100 units/ml of penicillin, 100 μg/ml streptomycin and 5% fetal calf serum (FCS) (Gibco BRL). All cell lines were cultivated as monolayer in Petri dishes of 60 mm diameter and incubated at 37° C. in a humid atmosphere containing 5% CO2.
(§3) Cytotoxicity. Cell metabolic efficiency and viability were determined by the uptake and reduction of 3-(4,5-dimethylthiazol-2-yl)-2,5-diphenyl tetrazolium bromide (MTT) to an insoluble formazan dye by cellular microsomal enzymes. The cell lines were grown in RPMI medium with 10% fetal calf serum, penicillin and streptomycin. Cells were maintained in 5% CO2, 95% air and 100% humidity. For determining cytotoxicity, these cells were plated in 96-well plates at a density of 1×10^4 cells well in complete media. After 24 h, the cells were incubated with photosensitizers at different concentrations (0.25 up to 50 μM) for 18 hours at 37° C. The cells were then washed twice with PBS and incubated in growth medium at 37° C. for 24 h. Next, the medium was replaced by 100 μl of fresh medium and 20 μl of MTT, and the cells were incubated with MTT for 3 h, with a final concentration of 0.5 mg/ml. Then the culture medium was replaced with DMSO-methanol solution (1:1) to dissolve the blue formazan crystals. The 96-well culture plate was shaken for 0.5 min at room temperature and immediately read for optical density at 560 nm using an ELISA reader (GENios Plus; Tecan Trading AG, Switzerland). The cell survival was expressed by the absorbance changes of the formazan salt, and survival rate was given as the percent ratio of viable treated cells vs. the number of viable untreated cells. Number of cells was determined from linear regression of a calibration curve.
(§4) Cell photosensitization. SKMEL 188, S91 and MCF7 cells were prepared as described above. […] The cells were incubated for 12 h at 37° C. and then irradiated at a 0.53 mW cm^2 fluence rate and in doses ranging from 0.1 to 0.64 J cm^2. We recall that photosensitizer uses only ca. ⅕ of the available fluence rate of the filtered halogen lamp. The MTT test was performed 24 h after irradiation. The values were obtained from three independent experiments and expressed as percent of cell survival with reference to control cells, which were manipulated in the same manner but without incubation with photosensitizer and without illumination. […]

[5] = system: S91 (mouse melanoma); test: as above; type: cell-based; details: [Luzitin-Cl] = 20 μM
Experimental: as §1, §2, §3, §4

[6] = Bacteriochlorin pharmacokinetics and biodistribution following ip administration, S91 tumor-bearing mice; details: 10 mg/kg ip
[7] = [Luzitin-Cl] = 20 μM, filtered halogen lamp

## CNS(=O)(=O)c1ccc(F)c(-c2c3nc(c(-c4cc(S(=O)(=O)NC)ccc4F)c4ccc([nH]4)c(-c4cc(S(=O)(=O)NC)ccc4F)c4nc(c(-c5cc(S(=O)(=O)NC)ccc5F)c5ccc2[nH]5)CC4)CC3)c1 [Luzitin-FMet, 5,10,15,20-tetrakis(2-fluoro-5-N-methylsulfamoylphenyl)bacteriochlorin]
[1]
  depth of diffusion through stratum corneum and epidermis: 50 microns
  time to diffuse through all the epidermis: ≤ 3 h
[1]; in vivo
  side effects of topical gel formulation: None of the animals, and in particular the animal that remained alive, showed evidence for side effects
[2]
  tumor size after PDT vs non-irradiated controls: smaller than the average size of the control animals and in one case the tumor completely disappeared

## CCNS(=O)(=O)c1ccc(Cl)c(-c2c3nc(c(-c4c(Cl)ccc(S(=O)(=O)NCC)c4Cl)c4ccc([nH]4)c(-c4c(Cl)ccc(S(=O)(=O)NCC)c4Cl)c4nc(c(-c5c(Cl)ccc(S(=O)(=O)NCC)c5Cl)c5ccc2[nH]5)CC4)CC3)c1Cl [Luzitin-Cl2Et, 5,10,15,20-tetrakis(2,6-dichloro-3-N-ethylsulfamoylphenyl)bacteriochlorin]
[3]; 10 mg/kg i.p. in PEG400, 24 h post-injection, 748 nm laser, single session
  tumor response after PDT: long-lasting tumor regression
[3]; within minutes of the irradiation
  necrosis of irradiated tumor area: evident signals of necroses

## O=S(=O)(O)c1ccc(Cl)c(-c2c3nc(c(-c4cc(S(=O)(=O)O)ccc4Cl)c4ccc([nH]4)c(-c4cc(S(=O)(=O)O)ccc4Cl)c4nc(c(-c5cc(S(=O)(=O)O)ccc5Cl)c5ccc2[nH]5)CC4)CC3)c1 [Luzitin-Cl, 5,10,15,20-tetrakis(2-chloro-5-sulfonylphenyl)bacteriochlorin]
[4]; 5 μM, filtered halogen light 0.6 J/cm^2, 12 h incubation
  cell kill: 100%
[4]; [7]
  LD50 (light dose to kill 50% of the cells): 0.08 J/cm^2
  LD90 (light dose to kill 90% of the cells): 0.25 J/cm^2
[5]
  LD50 (light dose to kill 50% of the cells): 0.15 J/cm^2
  LD90 (light dose to kill 90% of the cells): 0.3 J/cm^2
[6]
  accumulation in the skin: negligible
  time to clearance from most of the organs: 24 h
[6]; one day after administration
  concentration in tumor relative to muscle: 3 times
